For 25 molecules, GI50 results are on record in patent US12558428B2, “Heterobifunctional compounds and their use in treating disease” (Halda Therapeutics OpCo, Inc., priority 2024, dated 2026).

Structures are written as SMILES. Like-named read-outs stand apart in the source and are kept apart here.

Holding throughout (assay type): cell-based
Experiment [1] relates to T-Rex 293 cells having increased expression of estrogen receptor alpha protein. Description: Cellular growth inhibition assay, T-Rex 293 cells, (+) doxycycline. The essentials:
(§1)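 ERα overexpression was switched on by 3 ng/mL doxycycline in a stably transfected T-Rex 293 clone, while uninduced cells served as the comparison line. Proliferation over 72 h of compound treatment was assessed by ATP luminescence, and GI50 values came from four-parameter curves.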

Experiment [2] deals with T-Rex 293 cells lacking increased expression of estrogen receptor alpha protein. Description: Cellular growth inhibition assay, T-Rex 293 cells, (−) doxycycline. The essentials:
as §1

For experiment [3], the system named is MCF7 cells (ATCC #HTB-22). The experiment can be described thus: Cellular growth inhibition assay, MCF7 cells purchased from ATCC. The essentials:
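MCF7 cells in RPMI 1640 with 10% FBS and 0.2 U/ml insulin, seeded at 1,500 cells/well (ATCC) or 225 cells/well (ECACC). Compounds added 24 h later, then 6 days at 37° C. Viability by CellTiter-Glo 2.0 luminescence. GI50 from four-parameter fit.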

The mark [4] stands for this setting: T-REx-293, 72 h, Table 7-A, T-Rex 293 cells with doxycycline (increased ERα expression), 72 hours, CellTiter-Glo, read-out: (+) Dox GI50.
The mark [5] stands for this setting: T-REx-293, 72 h, Table 7-A, T-Rex 293 cells without doxycycline (lacking increased ERα expression), 72 hours, CellTiter-Glo, read-out: (−) Dox GI50.
Setting [6] is: Homo sapiens, MCF7, 144 h, Table 8-A, MCF7 cells purchased from ATCC, six days, CellTiter-Glo, read-out: GI50.

For the molecule `Cc1sc2c(c1C)C(c1ccc(N3CC(CN4CC(CC5CN(c6ccc([C@@H]7c8ccc(O)cc8CC[C@@H]7c7ccccc7)cc6)C5)C4)C3)cc1)=N[C@@H](C)c1nnc(C)n1-2` [III-221], the GI50 was < 50 nM in experiment [1] (Table 7-A, T-Rex 293 cells with doxycycline (increased ERα expression), 72 hours, CellTiter-Glo, read-out: (+) Dox GI50); 50 to 500 nM in experiment [2] (Table 7-A, T-Rex 293 cells without doxycycline (lacking increased ERα expression), 72 hours, CellTiter-Glo, read-out: (−) Dox GI50); < 50 nM in experiment [3] (Table 8-A, MCF7 cells purchased from ATCC, six days, CellTiter-Glo, read-out: GI50).
For `CC1=C(c2c(F)cc(F)cc2F)[C@H](c2ccc(C3CCN(CC4CCN(c5ccc(C6=N[C@@H](C)c7nnc(C)n7-c7sc(C)c(C)c76)cc5)CC4)CC3)cc2)Oc2ccc(O)cc21` [V-12], the figures for the GI50 in experiment [1] (setting [4]), in experiment [2] (setting [5]) and in experiment [3] (setting [6]) were < 50 nM, 50 to 500 nM and 50 to 500 nM, respectively.
`Cc1sc2c(c1C)C(c1ccc(N3CC4(CC(CN5CCN(c6ccc([C@H]7c8ccc(O)cc8CC[C@H]7c7ccc(F)cc7)cc6)CC5)C4)C3)cc1)=N[C@@H](C)c1nnc(C)n1-2` [III-262]: the GI50 lay within 50 to 500 nM in experiment [1] (setting [4]), 500 to 2500 nM in experiment [2] (setting [5]) and 50 to 500 nM in experiment [3] (setting [6]).
With `Cc1cc(C2=N[C@@H](C)c3nnc(C)n3-c3sc(C)c(C)c32)ccc1N1CC(CN2CCN(CC3CN(c4ccc(C5=C(c6ccc(Cl)cc6)CCCc6cc(C(=O)O)ccc65)cc4)C3)CC2)C1` [IV-64], the GI50 is 50 to 500 nM in experiment [1] (setting [4]), 500 to 2500 nM in experiment [2] (setting [5]) and < 50 nM in experiment [3] (setting [6]).
For `COc1cc(N2CCN(CC3(O)CCN(c4ccc(C5=N[C@@H](C)c6nnc(C)n6-c6sc(C)c(C)c65)c(F)c4)CC3)CC2)ccc1[C@@H]1c2ccc(O)cc2CC[C@@H]1c1cccc(F)c1` (single isomer, unassigned) [III-344] the same measures were < 50 nM, 500 to 2500 nM and < 50 nM.
For `Cc1sc2c(c1C)C(c1ccc(N[C@@H]3C[C@H]4CCC[C@@H](C3)N4CCOc3ccc([C@@H]4c5ccc(O)cc5CC[C@@H]4c4ccccc4)cc3)cc1)=NC(Cc1ncco1)c1nnc(C)n1-2` (stereo partly drawn) [III-64], the GI50 in experiment [1] (setting [4]), in experiment [2] (setting [5]) and in experiment [3] (setting [6]) was 50 to 500 nM throughout.
As to `Cc1cc(N2CCN(CC3(O)CCN(c4ccc(C5=N[C@@H](C)c6nnc(C)n6-c6sc(C)c(C)c65)cc4)CC3)CC2)c(F)cc1[C@H]1c2ccc(O)cc2CC[C@H]1c1ccccc1` [III-285], the 50% growth inhibitory concentration (GI50) in experiment [1] (setting [4]), in experiment [2] (setting [5]) and in experiment [3] (setting [6]) was 50 to 500 nM throughout.
For `Cc1sc2c(c1C)C(c1ccc(N3CCN(CC4CCN(c5ccc([C@@H]6c7ccc(O)cc7CC[C@@H]6c6ccccc6)cc5)CC4)CC3)cc1)=N[C@H](Cc1ncco1)c1nnc(C)n1-2` [III-1, (5R,6S)-6-phenyl-5-(4-(4-((4-(4-((R)-2,3,9-trimethyl-6-(oxazol-2-ylmethyl)-6H-thieno[3,2-f][1,2,4]triazolo[4,3-a][1,4]diazepin-4-yl)phenyl)piperazin-1-yl)methyl)piperidin-1-yl)phenyl)-5,6,7,8-tetrahydronaphthalen-2-ol], the GI50 is > 2500 nM in experiment [1] (setting [4]), > 2500 nM in experiment [2] (setting [5]) and 500 to 2500 nM in experiment [3] (setting [6]).
As for `CC1=C(c2c(F)cc(F)cc2F)[C@H](c2ccc(N3CC(CN4CCN(CC5CN(c6ccc(C7=N[C@@H](C)c8nnc(C)n8-c8sc(C)c(C)c87)cc6)C5)CC4)C3)cc2)Oc2ccc(O)cc21` [V-35], the GI50 in experiment [1] (setting [4]) is < 50 nM; in experiment [2] (setting [5]), 50 to 500 nM; in experiment [3] (setting [6]), < 50 nM.
For `CC1=C(c2c(F)cc(F)cc2F)[C@@H](c2ccc(N3CC(CN4CCN(CC5CN(c6ccc(C7=N[C@@H](C)c8nnc(C)n8-c8sc(C)c(C)c87)cc6)C5)CC4)C3)cc2)Oc2ccc(O)cc21` [V-36], the GI50 was < 50 nM in experiment [1] (setting [4]), 500 to 2500 nM in experiment [2] (setting [5]) and 50 to 500 nM in experiment [3] (setting [6]).
`Cc1sc2c(c1C)C(c1ccc(N3CCC(O)(CN4CCN(c5ccc([C@H]6c7ccc(O)cc7CC[C@H]6c6cccc(F)c6)c(F)c5)CC4)CC3)cc1)=N[C@@H](C)c1nnc(C)n1-2` [III-290]: the GI50 was < 50 nM in experiment [1] (setting [4]), 50 to 500 nM in experiment [2] (setting [5]) and 50 to 500 nM in experiment [3] (setting [6]).
Regarding `Cc1sc2c(c1C)C(c1ccc(C3CN(CCN4CC(COc5ccc([C@H]6c7ccc(O)cc7CC[C@H]6c6ccccc6)cc5)C4)C3)cc1)=N[C@@H](C)c1nnc(C)n1-2` [III-96], the GI50 in experiment [1] (setting [4]), in experiment [2] (setting [5]) and in experiment [3] (setting [6]) was 50 to 500 nM in each case.
Regarding `Cc1sc2c(c1C)C(c1ccc(C3CN(C(=O)C4CCN(CC5CN(c6ccc([C@@H]7c8ccc(O)cc8CC[C@@H]7c7ccccc7)cc6)C5)CC4)C3)cc1)=N[C@@H](Cc1ncco1)c1nnc(C)n1-2` [III-175], the GI50 is < 50 nM in experiment [1] (setting [4]), 50 to 500 nM in experiment [2] (setting [5]) and < 50 nM in experiment [3] (setting [6]).
For the molecule `Cc1sc2c(c1C)C(c1ccc(N3CCC(O)(CN4CCN(c5ccc([C@H]6c7ccc(O)cc7CC[C@H]6c6ccc(F)cc6)c(F)c5)CC4)CC3)cc1)=N[C@@H](C)c1nnc(C)n1-2` [III-249], the figures for the GI50 in experiment [1] (setting [4]), in experiment [2] (setting [5]) and in experiment [3] (setting [6]) were 50 to 500 nM, 500 to 2500 nM and 50 to 500 nM, respectively.
Take `Cc1sc2c(c1C)C(c1ccc(N3CCC(O)(CN4CCN(c5ccc(C6=C(c7ccccc7Cl)CCCc7cc(O)ccc76)cc5)CC4)CC3)cc1)=N[C@@H](C)c1nnc(C)n1-2` [IV-20]: the 50% growth inhibitory concentration (GI50) is < 50 nM in experiment [1] (setting [4]), 500 to 2500 nM in experiment [2] (setting [5]) and < 50 nM in experiment [3] (setting [6]).
In the case of `Cc1sc2c(c1C)C(c1ccc(N3CC4(CC(CN5CCN(c6ccc([C@@H]7c8ccc(O)cc8CC[C@@H]7c7ccc(F)cc7)cc6)CC5)C4)C3)cc1)=N[C@@H](C)c1nnc(C)n1-2` [III-263], the GI50 is < 50 nM in experiment [1] (setting [4]), 500 to 2500 nM in experiment [2] (setting [5]) and < 50 nM in experiment [3] (setting [6]).
For `CCN(Cc1ccc(C2CN(CC3(O)CCN(c4ccc(C5=N[C@@H](C)c6nnc(C)n6-c6sc(C)c(C)c65)cc4)CC3)C2)cc1)c1cc(OC)ccc1C1CCc2cc(O)ccc2C1` (stereo partly drawn) [I-8, 4-((3-(4-((ethyl(2-(6-hydroxy-1,2,3,4-tetrahydronaphthalen-2-yl)-5-methoxyphenyl)amino)methyl)phenyl)azetidin-1-yl)methyl)-1-(4-((S)-2,3,6,9-tetramethyl-6H-thieno[3,2-f][1,2,4]triazolo[4,3-a][1,4]diazepin-4-yl)phenyl)piperidin-4-ol], the GI50 was 50 to 500 nM in experiment [1] (T-REx-293, 72 h, read-out: (+) Dox TRex ERa (GI50)); 50 to 500 nM in experiment [2] (T-REx-293, 72 h, read-out: (−) Dox TRex ERa (GI50)); < 50 nM in experiment [3] (Homo sapiens, MCF7, 144 h).
As for `Cc1sc2c(c1C)C(c1ccc(N3CC4(CCN(CC5CCN(c6ccc([C@@H]7c8ccc(O)cc8CC[C@@H]7c7ccccc7)cc6)CC5)CC4)C3)cc1)=N[C@@H](Cc1ncco1)c1nnc(C)n1-2` [III-161], the GI50 in experiment [1] (setting [4]) is < 50 nM; in experiment [2] (setting [5]), 50 to 500 nM; in experiment [3] (setting [6]) it was < 50 nM.
Regarding `Cc1sc2c(c1C)C(c1ccc(N3CCC(O)(CN4CCN(c5ccc([C@@H]6c7ccc(O)cc7CC[C@@H]6c6ccc(F)cc6F)cc5)CC4)CC3)cc1)=N[C@@H](Cc1ncco1)c1nnc(C)n1-2` [III-259], the results for the GI50 in experiment [1] (setting [4]), in experiment [2] (setting [5]) and in experiment [3] (setting [6]) were < 50 nM, 500 to 2500 nM and < 50 nM, respectively.
In the case of `CC1=C(c2c(F)cc(OCCOCCOc3ccc(C4=N[C@@H](C)c5nnc(C)n5-c5sc(C)c(C)c54)cc3)cc2F)C(c2ccccc2)Oc2ccc(O)cc21` (single isomer, unassigned) [I-39], the GI50 in experiment [1] (T-REx-293, 72 h, T-Rex 293 cells with doxycycline-induced ERα expression, 72 hours, CellTiter-Glo 2.0, read-out: (+) Dox TRex ERa (GI50)) is 50 to 500 nM; in experiment [2] (T-REx-293, 72 h, T-Rex 293 cells without doxycycline, 72 hours, CellTiter-Glo 2.0, read-out: (−) Dox TRex ERa (GI50)), 500 to 2500 nM; in experiment [3] (setting [6]), 50 to 500 nM.
As to `CC1=C(c2c(F)cc(F)cc2F)C(c2ccc(N3CCN(CC4CCN(c5ccc(C6=N[C@@H](C)c7nnc(C)n7-c7sc(C)c(C)c76)cc5)CC4)CC3)cc2)Oc2ccc(O)cc21` (stereo partly drawn) [V-11], the GI50 in experiment [1] (setting [4]) lay within 50 to 500 nM; in experiment [2] (setting [5]), 500 to 2500 nM; in experiment [3] (setting [6]), 50 to 500 nM.
Regarding `Cc1sc2c(c1C)C(c1ccc(N3CC4(CCC(O)(CN5CCC(c6cc(F)c([C@H]7c8ccc(O)cc8CC[C@H]7c7ccc(F)cc7)c(F)c6)CC5)CC4)C3)cc1)=N[C@@H](C)c1nnc(C)n1-2` [III-267], the GI50 in experiment [1] (setting [4]) is 50 to 500 nM; in experiment [2] (setting [5]) it was > 2500 nM; in experiment [3] (setting [6]), 50 to 500 nM.
As for `Cc1sc2c(c1C)C(c1ccc(N3CCC4(CC3)CN(CCOc3ccc([C@H]5c6ccc(O)cc6CC[C@H]5c5ccccc5)cc3)C4)cc1)=N[C@@H](C)c1nnc(C)n1-2` [III-79], the GI50 in experiment [1] (setting [4]), in experiment [2] (setting [5]) and in experiment [3] (setting [6]) was 50 to 500 nM in each case.
As for `Cc1cc(N2CCN(CC3(O)CCN(c4ccc(C5=N[C@@H](C)c6nnc(C)n6-c6sc(C)c(C)c65)cc4)CC3)CC2)ccc1[C@@H]1c2ccc(O)cc2CC[C@@H]1c1ccc(F)cc1` [III-298], the GI50 in experiment [1] (setting [4]), in experiment [2] (setting [5]) and in experiment [3] (setting [6]) was 50 to 500 nM each time.
On to `Cc1sc2c(c1C)C(c1ccc(N3CCC(O)(CN4CCN(c5ccc(C6=C(c7ccccc7Cl)CCCc7cc(C(=O)O)ccc76)c(F)c5)CC4)CC3)cc1)=N[C@@H](Cc1ncco1)c1nnc(C)n1-2` [IV-60], for which the GI50 is < 50 nM in experiment [1] (setting [4]), 50 to 500 nM in experiment [2] (setting [5]) and < 50 nM in experiment [3] (setting [6]).
